Drawing on PubChem BioAssay (NCI), this text covers GI50 and TGI for 14 compounds.

Some test systems named below: 786-0 renal; EKVX NSCLC; HOP-62 NSCLC; HT29 colon; M14 melanoma; MOLT-4 leukemia; NCI-H460 lung; SF-268 CNS; SK-MEL-28 melanoma; A498 renal.
Assay in all cases: DTP human tumour cell line panel, 48 h

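Test compounds were applied to cells in 96-well plates for 48 hours at 5 doses. GI50: concentration for 50% inhibition of growth. TGI is the concentration that stops growth completely.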

As for `O=C(Cc1csc2nc(-c3ccc(Br)cc3)cn12)N/N=C/c1ccc(O)cc1`, the GI50 was 26.1 µM with 786-0 renal; 11.5 µM in the assay on EKVX NSCLC; 18.1 µM in the assay on HOP-62 NSCLC; 49.9 µM in the assay on HT29 colon; 10.2 µM in the assay on M14 melanoma; 4.21 µM in the assay on MOLT-4 leukemia. The figures for the GI50 in the assay on NCI-H460 lung, in the assay with SF-268 CNS and in the assay with SK-MEL-28 melanoma were 56.9 µM, > 100 µM and 60 µM, respectively. Further, the TGI in the assay with 786-0 renal is 89 µM; with EKVX NSCLC, 65.9 µM; in the assay with HOP-62 NSCLC it was 53.2 µM; in the assay on HT29 colon it was > 100 µM; with M14 melanoma, 23.7 µM; in the assay on NCI-H460 lung it was > 100 µM. Further, the TGI in the assay with SF-268 CNS and in the assay on SK-MEL-28 melanoma was > 100 µM in each case.
`FC1OC2OC1C(OCc1ccccc1)C(OCc1ccccc1)C2OCc1ccccc1` (stereo unspecified): the TGI in the assay with 786-0 renal was > 100 µM; in the assay on A498 renal it was > 100 µM; with EKVX NSCLC it was > 100 µM; in the assay on HT29 colon, > 100 µM; with M14 melanoma it was > 100 µM; in the assay on MOLT-4 leukemia, 67.4 µM. Further, the TGI in the assay with NCI-H460 lung, with SF-268 CNS and in the assay with SK-MEL-28 melanoma was > 100 µM each time.
Consider `O=C(Nc1cccc(NC(=O)c2cc(=O)c3ccccc3o2)n1)c1cc(=O)c2ccccc2o1`, for which the TGI with 786-0 renal, with A498 renal, in the assay with EKVX NSCLC, in the assay on HOP-62 NSCLC, with M14 melanoma and in the assay with MOLT-4 leukemia was > 100 µM each time. Moreover, the TGI in the assay with NCI-H460 lung, in the assay with SF-268 CNS and in the assay on SK-MEL-28 melanoma was > 100 µM throughout.
With `CCCCCCCCCCCCCCCCOC(=O)c1cc(O)cc(C(=O)OCCCCCCCCCCCCCCCC)c1`, the TGI in the assay on 786-0 renal, with A498 renal, with EKVX NSCLC, with HT29 colon, in the assay on M14 melanoma and with MOLT-4 leukemia was > 100 µM each time. For the same compound, the TGI with NCI-H460 lung, in the assay on SF-268 CNS and in the assay with SK-MEL-28 melanoma was > 100 µM throughout.
Take `C[C@@H]1C[C@]2(C[C@@H](C)C3[C@@H](CC4(C)[C@@H]5CCC6C(C)(C)OC(=O)C=C[C@]67C[C@@]5(CC[C@]34C)OO7)O2)OC1=O` (stereo partly specified): the concentration for total growth inhibition (TGI) in the assay with 786-0 renal, in the assay with HT29 colon, in the assay with M14 melanoma, with NCI-H460 lung and with SK-MEL-28 melanoma was > 100 µM each time.
For the compound `COc1cc2cc3c4c(cc(OC)c(OC)c4c2cc1OC)CCN3C(=O)CCC(=O)NCCCN(C)C`, the TGI was > 100 µM in the assay on 786-0 renal; > 100 µM in the assay on EKVX NSCLC; > 100 µM in the assay with HOP-62 NSCLC; 51.7 µM with HT29 colon; 32 µM in the assay on M14 melanoma; > 100 µM with MOLT-4 leukemia. Moreover, the concentration for total growth inhibition (TGI) with NCI-H460 lung, with SF-268 CNS and in the assay on SK-MEL-28 melanoma was > 100 µM each time.
As for `C/C=C1\C(=O)OC2CCN3CCC(COC(=O)C(C)(O)C(C)C1O)C23` (stereo unspecified), the TGI in the assay on 786-0 renal, in the assay with A498 renal, in the assay with EKVX NSCLC, in the assay on HT29 colon, in the assay on M14 melanoma and in the assay with MOLT-4 leukemia was > 100 µM in each case. The TGI in the assay on NCI-H460 lung, in the assay with SF-268 CNS and in the assay on SK-MEL-28 melanoma was > 100 µM each time.
Take `COc1ccc2nc3ccccc3c(NCCCCN(C)CCCl)c2c1`: the TGI stood at 0.185 µM in the assay with 786-0 renal; 3.05 µM in the assay with EKVX NSCLC; 0.546 µM in the assay on HOP-62 NSCLC; 1.46 µM in the assay on HT29 colon; 0.314 µM with M14 melanoma; 0.234 µM in the assay with NCI-H460 lung. Besides, the values for the TGI with SF-268 CNS and in the assay with SK-MEL-28 melanoma were 0.756 µM and 2.39 µM, respectively.
As for `O=C1c2ccccc2C(=O)c2nc3ccc(Cl)cc3cc21`, the TGI with 786-0 renal, in the assay with EKVX NSCLC, in the assay with HOP-62 NSCLC, in the assay on HT29 colon, in the assay on M14 melanoma and in the assay on MOLT-4 leukemia was > 100 µM in each case. For the same compound, the TGI in the assay with NCI-H460 lung, with SF-268 CNS and in the assay on SK-MEL-28 melanoma was > 100 µM throughout.
For the compound `O=c1cc(-c2ccccn2)[nH]c2ccc(Cl)cc12`, the TGI in the assay with 786-0 renal, in the assay with EKVX NSCLC, with HOP-62 NSCLC, in the assay with HT29 colon, in the assay with M14 melanoma and with MOLT-4 leukemia was > 100 µM throughout. The figures for the TGI in the assay on NCI-H460 lung, with SF-268 CNS and with SK-MEL-28 melanoma were > 100 µM, 66.7 µM and > 100 µM, respectively. Besides, the GI50 with SF-268 CNS is 23.4 µM.
On to `CC1(C)CC[C@]2(C(N)=O)CC[C@]3(C)C(=CC[C@@H]4[C@@]5(C)C/C(=C/c6ccncc6)C(=O)C(C)(C)[C@@H]5CC[C@]43C)[C@@H]2C1`, for which the GI50 with 786-0 renal was 2.25 µM; in the assay on A498 renal it was 1.7 µM; in the assay on EKVX NSCLC it was 2.44 µM; in the assay on HOP-62 NSCLC, 2.01 µM; with M14 melanoma, 2.05 µM; with MOLT-4 leukemia, 2 µM. Also, the GI50 was 2.15 µM in the assay on SF-268 CNS and 1.81 µM with SK-MEL-28 melanoma. The TGI with 786-0 renal came out at 7.62 µM; in the assay on A498 renal, 3.38 µM; in the assay with EKVX NSCLC it was 9.46 µM; in the assay on HOP-62 NSCLC, 4.71 µM; with M14 melanoma it was 4.62 µM; in the assay with MOLT-4 leukemia, 6.02 µM. Also, the TGI in the assay with SF-268 CNS came out at 5.49 µM; with SK-MEL-28 melanoma, 3.39 µM.
`CCN(CC)CCN(C(=O)C(C)(C)C)c1ccccc1N`: the TGI in the assay with 786-0 renal, in the assay on EKVX NSCLC, with HOP-62 NSCLC, in the assay with HT29 colon, in the assay with M14 melanoma and in the assay with MOLT-4 leukemia was > 100 µM throughout. Also, the TGI in the assay on NCI-H460 lung, with SF-268 CNS and in the assay with SK-MEL-28 melanoma was > 100 µM in each case.
For `COc1ccc(S(=O)(=O)N(C)CC(=O)O)cc1`, the TGI in the assay on 786-0 renal, in the assay with A498 renal, in the assay with EKVX NSCLC, in the assay on HT29 colon, in the assay on M14 melanoma and in the assay with MOLT-4 leukemia was > 100 µM in each case. Moreover, the TGI in the assay with NCI-H460 lung, in the assay with SF-268 CNS and with SK-MEL-28 melanoma was > 100 µM each time.
Consider `CC1OC(OC2CCC3(C=O)C4CCC5(C)C(C6=CC(=O)OC6)CCC5(O)C4CCC3(O)C2)C(O)C(O)C1O` (stereo unspecified), for which the total growth inhibition concentration (TGI) with 786-0 renal turned out to be 3.2e-05 µM; with A498 renal it was 0.000154 µM; in the assay with EKVX NSCLC it was 3.38e-05 µM; in the assay on HOP-62 NSCLC it was 3.85e-05 µM; in the assay on MOLT-4 leukemia, 1.6e-05 µM; with NCI-H460 lung it was 3.81e-05 µM. The TGI with SF-268 CNS worked out at 4.11e-05 µM; in the assay on SK-MEL-28 melanoma, 0.000135 µM.

As a reminder, the GI50 is the concentration giving 50% growth inhibition. The TGI is the concentration at which net growth stops.
